Several values for one entry are separate records, joined by “and”; a condition that tells them apart may be missing. Equal entries are not always repeated. Where two headings read alike, the source gives them in different places. * marks the point of attachment. Cbz = O=C(OCc1ccccc1)*; CH2F = FC*

This is an account of results in paper PMC3638593, “1,4-dihydroxy-2-naphthoic Acid Induces Apoptosis in Human Keratinocyte: Potential Application for Psoriasis Treatment” (Evidence-based Complementary and Alternative Medicine : eCAM, 2013).

Common to all, as to assay type: cell-based, human
For series [1], the system named is HaCaT cells. The experiment in a line: Proliferation assay (sulphorhodamine B) on HaCaT. The settings on record: Homo sapiens, read-out: IC50 on growth. An excerpt: (§1) The spontaneously immortalized human epidermal keratinocyte HaCaT cells were purchased from China Centre for Type Culture Collection, Wuhan, China. The human foreskin fibroblast Hs-68 cells were purchased from the American Type Culture Collection (Manassas, VA, USA). The human undifferentiated keratinocyte NCTC 2544 cells were provided by Interlab Cell Line Collection (Genoa, Italy) and the immortalized human epidermal melanocyte PIG1 cells were a gift from Dr Caroline Le Poole (Loyola University Chicago, Maywood, IL, USA). HaCaT and Hs-68 cells were maintained in DMEM, NCTC 2544 in RPMI 1640 and PIG1 cells in Medium 254 with Human Melanocyte Growth Supplement-2, respectively. All cells were cultured in complete medium containing 10% FBS, 100 μg/mL of streptomycin, and 100 U/mL of penicillin (Gibco Laboratories) at 37°C in a humidified atmosphere of 5% CO2. Cell culture experiments were carried out at 60–80% confluent.
(§2) The ethyl acetate extract (EA) of Rubia cordifolia L. was isolated as described. 1,4-dihydroxy-2-naphthoic acid (98%), dithranol (≥90%), and EA were dissolved in DMSO as stock. All cells were seeded and treated with various concentrations of DHNA, dithranol or EA. After treatment, cells were fixed with cold 50% trichloroacetic acid and incubated 1 h at 4°C. Cell was then washed with deionized water, air-dried, and stained with 0.4% (w/v) sulphorhodamine B for 30 min at room temperature. Unincorporated dye was removed with 1% acetic acid wash and the cell was again air-dried. Incorporated dye was then solubilized in 10 mM Tris base and absorbance was measured at 565/690 nm using a Sunrise microplate spectrophotometer (Tecan, Switzerland). IC50 were determined using GraphPad Prism 5.0 (GraphPad Software, San Diego, CA, USA).

A further series deals with NCTC 2544 cells. The experiment in a line: Proliferation assay (sulphorhodamine B) on NCTC 2544. Particulars: Homo sapiens, read-out: IC50 on growth.
Excerpt: as §1, §2

Series [2] has as its system IL-1α release from NCTC 2544 cells. The experiment in a line: IL-1α release assay (ELISA). The method, then: NCTC 2544 cells were seeded and treated with various concentrations of DHNA or dithranol for 72 h. After incubation, the microplate was centrifuged and conditioned medium was collected to determine the extracellular IL-1α (IL-1α release) using an IL-1α ELISA kit (Diaclone Research, France). All other steps were then according to the manufacturer's protocol. Results were expressed in pg/mL.

For series [3], the system named is HaCaT cells. The experiment in a line: Annexin V/propidium iodide staining, flow cytometry. Particulars: 40 μM pretreatment 1 h, then DHNA 24 h. On the procedure:
After DHNA treatment, HaCaT cells were resuspended in annexin V binding buffer (10 mM HEPES, 140 mM NaCl, and 2.5 mM CaCl2, pH 7.4) and then incubated with FITC-conjugated annexin V (Biosource International, Inc., USA), and 0.5 μg/mL propidium iodide (PI) for 15 min at room temperature in the dark. Cells were analyzed on a FACSCanto flow cytometer (BD Biosciences, San Jose, CA, USA) immediately and then analyzed using WinMDI 2.9 (developed by Dr. J. Trotter, Scripps Institute, La Jolla, CA, USA). The total number of early (FITC+/PI−) and late (FITC+/PI+) apoptotic cells was assessed. In another experiment, HaCaT cells were preincubated with 40 μM pan-caspase inhibitor Z-VAD-FMK (BD Pharmingen, San Diego, CA, USA) for 1 h before exposure to DHNA.

For `O=C1c2c(O)cccc2Cc2cccc(O)c21` [Dithranol, dithranol, reference compound], the 50% inhibitory concentration (IC50) (commonly the midpoint of a concentration-inhibition curve) in the series on HaCaT cells [1] (incubation 48 h) is 24.8 µM and 5.6 µg/mL; in the series on HaCaT cells [1] (incubation 72 h) it was 9.39 µM and 2.12 µg/mL; in the series on NCTC 2544 cells (NCTC 2544, incubation 48 h), 6.21 µM and 1.41 µg/mL; with NCTC 2544 cells (NCTC 2544, incubation 72 h) it was 3.81 µM and 0.86 µg/mL. In addition, the “IL-1α release at concentrations below IC50 on NCTC 2544” value in series [2] (2 to 3 μM or 0.45 to 0.68 μg/mL, 72 h) is “readily induced the release of this cytokine”. In addition, the “IL-1α release versus vehicle control” value in series [2] (2 to 8 μM (0.45 to 1.81 μg/mL), 72 h) is listed as “induced significant release of this cytokine at all concentrations tested”. The “concentration at which IL-1α release is significantly induced” value in series [2] (NCTC 2544, 72 h, versus vehicle control) is 2 μM and 0.45 μg/mL.
As to “Cbz-Val-Ala-Asp-CH2F [reference compound]”, the “effect of pan-caspase inhibitor on DHNA-induced apoptosis” value with HaCaT cells [3] is recorded as “partially blocked”.
